In the supplement of paper PMC13380429:

Key:
Settings in all cases: 72 h
Vero E6 [1] = assay: drug sensitivity score (DSS) for viability; higher = more toxic; extreme values may be limits of the assay
U2OS [2] = assay: as above
HepG2 [3] = assay: as above
Calu-3 [4] = assay: as above
Caco-2 [5] = assay: as above
Vero E6 [6] = assay: relative viability EC50 (midpoint between 100% and the lowest measured viability); higher = less toxic
U2OS [7] = assay: as above
HepG2 [8] = assay: as above
Calu-3 [9] = assay: as above
Caco-2 [10] = assay: as above
Vero E6 [11] = assay: cell viability relative to DMSO; higher = less toxic
U2OS [12] = assay: as above
HepG2 [13] = assay: as above
Calu-3 [14] = assay: as above
Caco-2 [15] = assay: as above

Row | SMILES | drug sensitivity score (Vero E6 [1]) | drug sensitivity score (U2OS [2]) | drug sensitivity score (HepG2 [3]) | drug sensitivity score (Calu-3 [4]) | drug sensitivity score (Caco-2 [5]) | relative viability EC50 (Vero E6 [6]) | relative viability EC50 (U2OS [7]) | relative viability EC50 (HepG2 [8]) | relative viability EC50 (Calu-3 [9]) | relative viability EC50 (Caco-2 [10]) | cell viability (Vero E6 [11]; 1 nM) | cell viability (Vero E6 [11]; 10 nM) | cell viability (Vero E6 [11]; 100 nM) | cell viability (Vero E6 [11]; 1000 nM) | cell viability (Vero E6 [11]; 10000 nM) | cell viability (U2OS [12]; 1 nM) | cell viability (U2OS [12]; 10 nM) | cell viability (U2OS [12]; 100 nM) | cell viability (U2OS [12]; 1000 nM) | cell viability (U2OS [12]; 10000 nM) | cell viability (HepG2 [13]; 1 nM) | cell viability (HepG2 [13]; 10 nM) | cell viability (HepG2 [13]; 100 nM) | cell viability (HepG2 [13]; 1000 nM) | cell viability (HepG2 [13]; 10000 nM) | cell viability (Calu-3 [14]; 1 nM) | cell viability (Calu-3 [14]; 10 nM) | cell viability (Calu-3 [14]; 100 nM) | cell viability (Calu-3 [14]; 1000 nM) | cell viability (Calu-3 [14]; 10000 nM) | cell viability (Caco-2 [15]; 1 nM) | cell viability (Caco-2 [15]; 10 nM) | cell viability (Caco-2 [15]; 100 nM) | cell viability (Caco-2 [15]; 1000 nM) | cell viability (Caco-2 [15]; 10000 nM)
1 | CNCC(O)c1ccc(O)c(O)c1 (racemic) [DL-Adrenaline] | 0 | 0 | 0 | 0 | 0 | > 10 µM | > 10 µM | > 10 µM | > 10 µM | > 10 µM | 95.3% | 93.2% | 96.6% | 93.8% | 104% | 98.7% | 99.6% | 89% | 99.9% | 103% | 105% | 90.8% | 110% | 99.4% | 113% | 99.8% | 98.3% | 92.4% | 92.7% | 105% | 94.8% | 97.8% | 90.1% | 93.7% | 95.7%
2 | Cc1cc(C)c(NC(=O)C2CC3CCC2C3)c(C)c1 (stereo not given) [ML-213] | 0 | 0 | 0 | 0 | 0 | > 10 µM | > 10 µM | > 10 µM | > 10 µM | > 10 µM | 93.3% | 98.4% | 96.3% | 90.3% | 100% | 105% | 100% | 99.8% | 103% | 104% | 103% | 104% | 99.9% | 104% | 101% | 105% | 96.5% | 92% | 106% | 95.3% | 107% | 82.4% | 93.7% | 98.4% | 99.8%
3 | CO[C@H]1/C=C\C=C(/C)C(=O)NC2=CC(=O)C(NCCN(C)C)=C(C[C@@H](C)C[C@H](OC)[C@H](O)[C@@H](C)/C=C(\C)[C@@H]1OC(N)=O)C2=O [alvespimycin] | 12.8 | 26.6 | 36 | 16.4 | 13.9 | 0.587 µM | 0.0542 µM | 0.0114 µM | 0.148 µM | 0.544 µM | 93.4% | 98.4% | 94.9% | 37% | 10.1% | 97.7% | 91.3% | 30.8% | 2.5% | 1% | 106% | 57.9% | 1.3% | 1.4% | -0.1% | 97.3% | 88.4% | 67.1% | 36% | 20% | 98.4% | 90.3% | 82.9% | 39.7% | 1.6%
4 | OCc1cncc(F)c1 [5-fluoro-3-pyridyl-methanol] | 0 | 0 | 0 | 0 | 0 | > 10 µM | > 10 µM | > 10 µM | > 10 µM | > 10 µM | 104% | 104% | 102% | 98.8% | 105% | 98.4% | 105% | 98.4% | 104% | 97.8% | 106% | 104% | 109% | 97.2% | 102% | 101% | 97.2% | 95.1% | 99.3% | 99.9% | 96% | 106% | 102% | 107% | 106%
5 | O=C1CCCCCCCCCCCCCCO1 [oxacyclohexadecan-2-one] | 0 | 0 | 0 | 0 | 0 | > 10 µM | > 10 µM | > 10 µM | > 10 µM | > 10 µM | 102% | 106% | 102% | 88.8% | 102% | 101% | 98.9% | 95.8% | 101% | 98% | 109% | 93.8% | 105% | 86% | 97.7% | 93.2% | 99.1% | 91.9% | 90% | 90.7% | 103% | 95.1% | 90% | 92.8% | 102%
6 | c1ccc2nc(C3=NCCN3)ccc2c1 [BU-224] | 0 | 0 | 0.1 | 0 | 0.3 | > 10 µM | > 10 µM | > 10 µM | > 10 µM | > 10 µM | 98.7% | 99.5% | 97.3% | 102% | 99% | 99.8% | 98.8% | 99.2% | 95.6% | 98.8% | 104% | 94.3% | 94.2% | 99.8% | 87.2% | 98.5% | 106% | 106% | 89.3% | 119% | 97.7% | 96.9% | 101% | 88.7% | 90.2%
7 | C[N+](C)(CCOc1ccccc1)Cc1ccccc1 [bephenium-hydroxynaphthoate] | 0 | 0 | 0 | 0 | 0 | > 10 µM | > 10 µM | > 10 µM | > 10 µM | > 10 µM | 98.2% | 96.9% | 94.8% | 92.6% | 103% | 93.7% | 99.4% | 93.5% | 101% | 102% | 100% | 98.4% | 92.3% | 96.8% | 100% | 102% | 103% | 90% | 98% | 102% | 96.1% | 99.4% | 106% | 102% | 102%
8 | CCc1ccc(OCc2ccccc2C(=O)Nc2ccc3nc(C)cc(N)c3c2)cc1 [JTC-801] | 6.4 | 5.9 | 7.4 | 5.6 | 6.8 | 2.69 µM | 3 µM | 2.25 µM | 3.18 µM | 2.49 µM | 101% | 99.7% | 102% | 94.1% | -0.1% | 96% | 99.2% | 96.6% | 97.8% | -0.1% | 114% | 95.6% | 102% | 89% | -0.1% | 97.7% | 102% | 100% | 100% | 0.2% | 97.8% | 94.5% | 90.4% | 91.9% | 0.6%
9 | COc1c(C)c2c(c(O)c1C/C=C(\C)CCC(=O)O)C(=O)OC2 [mycophenolic-acid] | 6.7 | 8.7 | 9 | 6 | 5.8 | 1.29 µM | 1.03 µM | 0.686 µM | 0.814 µM | 1.13 µM | 96.1% | 103% | 96.2% | 75.2% | 34.2% | 98.3% | 102% | 94.7% | 62.6% | 21.9% | 101% | 95.7% | 95.2% | 57.5% | 31.8% | 96.3% | 96.2% | 97.2% | 71.3% | 49.5% | 93.1% | 102% | 103% | 77.5% | 47%
10 | CCCCCCCC/C=C\CCCCCCCC(N)=O [oleamide] | 0 | 0 | 0 | 0 | 0 | > 10 µM | > 10 µM | > 10 µM | > 10 µM | > 10 µM | 97.3% | 99.3% | 100% | 100% | 101% | 98.8% | 103% | 97.1% | 100% | 91.3% | 104% | 101% | 99.2% | 92.7% | 104% | 107% | 98.7% | 93.9% | 104% | 89.7% | 99.3% | 92.4% | 95.3% | 96.5% | 99.7%
